Literature values as cited in patent publication US20050142195A1, “Stable pharmaceutical compositions without a stabilizer” (priority 2002, published 2005).
Like-named read-outs stand apart in the source and are kept apart here.

CC(NC(C)(C)C)C(=O)c1cccc(Cl)c1.Cl (racemic) [bupropion, (±)-1-(3-chlorophenyl)-2-[(1,1-dimethylethyl)amino]-1-propanone hydrochloride]
stability in mixture with lubricant (in the presence of magnesium stearate or stearic acid): poor
stability in mixture with lubricant (in the presence of talc): stable
